IC50 data for ten compounds are collected here from patent US12344623B2, “Thiazolopyridine derivatives as adenosine receptor antagonists” (Merck Patent GmbH, priority 2019, dated 2025).

Common to all, as to assay type: cell-based
One assay has as its target T1, human A3 receptor (Homo sapiens, UniProt P0DMS8).
T1 construct: expressed in transfected cells; host or cells: CHO
T1 sequence (P0DMS8 1-318): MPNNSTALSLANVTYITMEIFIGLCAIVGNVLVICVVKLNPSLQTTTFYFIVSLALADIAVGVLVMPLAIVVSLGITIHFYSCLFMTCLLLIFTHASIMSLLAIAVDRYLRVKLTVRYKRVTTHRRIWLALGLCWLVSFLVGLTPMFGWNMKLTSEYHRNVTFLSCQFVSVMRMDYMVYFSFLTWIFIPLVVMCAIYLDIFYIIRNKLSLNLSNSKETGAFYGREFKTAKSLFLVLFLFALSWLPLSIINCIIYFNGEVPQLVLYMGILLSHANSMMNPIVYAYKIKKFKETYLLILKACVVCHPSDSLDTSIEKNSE
Kind of assay: Functional A3 receptor activity, recombinant CHO cells, cAMP (HTRF), forskolin, agonist IB-MECA. The note with it: recombinant CHO cells, forskolin, agonist IB-MECA; read-out: Functional A3 receptor activity, CHO, cAMP, IC50. In short, it runs like this: (§1)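 Normalized HTRF cAMP signals (inhibitor and DMSO controls as references) were curve-fitted; assays used forskolin-stimulated CHO cells with A1 or A3, agonist CPA or IB-MECA respectively, 30 min compound incubation.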

Assay [1] concerns mouse Pan T cells. Kind of assay: mTcell assay, IL-2, rescue of cytokine secretion, agonist NECA. Particulars: 24 h. The source says:
(§2) Adenosine (Ado) in tumor microenvironment can inhibit T cell activity by signaling through A2A receptors and suppress cytokine secretion by T cells. […] Potential A2A antagonists or A2A/A2B dual antagonists can rescue T cells from this inhibition. Herein, we describe the in vitro system we established using Pan T cells from mouse spleens to screen potential A2A antagonists or A2A/A2B dual antagonists for their activity. The method described involves the use of CD3/CD28 pre-coated beads to stimulate Pan T cells purified from mouse splenocytes, combined with the addition of A2A agonist along with potential A2A or A2A/A2B dual antagonists to evaluate potentiation of T cell cytokine production.
Briefly, mouse Pan T cells are purified from spleens of BALB/c mice using Pan T cell isolation kit Mouse II (MACS Miltenyi biotech Cat # Order no. 130-095-130) according to manufacturer's protocol. The purified T cells are seeded in Nunc™ 96-Well Polystyrene Round Bottom Microwell Plates in RPMI medium with 10% heat inactivated fetal bovine serum. The cells are rested at 37° C. for 1 h before activating with CD3/CD28 pre-coated beads (Dynabeads™ Mouse T-Activator CD3/CD28; Cat #11456D). After 30 min the cells are treated with varying doses of test antagonist(s). […] After 24 h incubation IL-2 levels in the supernatants are measured by ELISAs according to manufacturer's protocol (R&D systems Cat #DY402 (IL-2)). Once the concentrations are calculated, the difference of cytokine concentration of DMSO control and agonist alone control is calculated and the percentage of rescue by each concentration of antagonist is calculated by using Microsoft Excel. These percentages of cytokine rescue in a dose dependent manner of antagonist is plotted in GraphPad Prism software and IC50 is calculated.

The test system of assay [2] is mouse Pan T cells. Kind of assay: mTcell assay, cAMP, agonist NECA.
Excerpt: as §2
Pan T-cells are isolated from black 6 mice by manual dissociation and purified using a Miltenyi Pan T-cell isolation kit. The isolated T-cells are activated in 96 well plates for 48 hours using anti-CD3/CD28 beads in T-cell proliferation media.
After 48 hours, the T-cells are pooled, counted and suspended in serum free media containing 0.1% BSA. The cells are plated at 50,000 cells per well in 10 ul of media and incubated for 2 hours at 37° C. Test compounds are dispensed into the wells at a 10-point dose response, starting at a concentration of 10 uM. […] The plates are incubated for 30 minutes at 37° C. and assayed for cAMP levels using the Cisbio cAMP Dynamic2 reagent kit by adding 10 ul of the kit reagents to each well. The plates are incubated for 1 hour at room temperature and the HTRF signal is read on an Envision plate reader. The raw data is analyzed in Genedata Screener and the resulting data is loaded into the database.

For assay [3], the target named is T2, human A2A receptor (Homo sapiens, UniProt P29274). Kind of assay: Human T cells, endogenous A2A receptor, cAMP, agonist NECA. The note with it: read-out: hTcell data, cAMP, IC50. In short, it runs like this:
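Pan T cells isolated from fresh human blood PBMC, endogenously expressing Gs-coupled A2A, treated with compounds. Cellular cAMP measured by HTRF after 1 h; data normalized to inhibitor control and DMSO neutral control, then curve-fitted.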

The target of the next assay is T3, human A1 receptor (Homo sapiens, UniProt P30542).
T3 construct: expressed in transfected cells; host or cells: CHO
T3 sequence (P30542 1-326): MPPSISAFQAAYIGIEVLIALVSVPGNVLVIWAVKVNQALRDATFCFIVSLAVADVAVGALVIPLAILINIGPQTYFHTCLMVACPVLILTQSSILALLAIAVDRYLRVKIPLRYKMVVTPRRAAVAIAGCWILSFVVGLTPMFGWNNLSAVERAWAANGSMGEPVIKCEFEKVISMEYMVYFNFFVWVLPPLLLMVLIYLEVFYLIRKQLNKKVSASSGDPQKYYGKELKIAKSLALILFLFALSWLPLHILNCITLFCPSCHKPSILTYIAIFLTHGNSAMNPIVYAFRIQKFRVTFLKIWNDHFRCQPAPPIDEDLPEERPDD
The experiment in a line: Functional A1 receptor activity, recombinant CHO cells, cAMP (HTRF), forskolin, agonist CPA. Particulars: recombinant CHO cells, forskolin, agonist CPA; read-out: Functional A1 receptor activity, CHO, cAMP, IC50. In short, it runs like this: as §1
In general terms: In TR-FRET formats the signal depends on donor and acceptor labels being close together.

In a further assay the target is T4, human A2B receptor (Homo sapiens, UniProt P29275).
T4 construct: expressed in transfected cells; host or cells: HEK293
T4 sequence (P29275 1-332): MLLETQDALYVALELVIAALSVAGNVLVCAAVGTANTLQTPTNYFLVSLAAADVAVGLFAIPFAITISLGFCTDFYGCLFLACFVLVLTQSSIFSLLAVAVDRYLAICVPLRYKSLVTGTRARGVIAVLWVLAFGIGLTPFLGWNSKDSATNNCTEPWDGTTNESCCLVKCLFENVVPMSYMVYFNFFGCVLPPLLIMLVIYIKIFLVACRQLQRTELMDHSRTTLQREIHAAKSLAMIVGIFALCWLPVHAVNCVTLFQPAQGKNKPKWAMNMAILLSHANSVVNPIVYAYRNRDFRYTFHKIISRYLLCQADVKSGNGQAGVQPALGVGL
The experiment in a line: Functional A2B receptor activity, recombinant HEK293 cells, cAMP (HTRF), agonist NECA. Particulars: read-out: Functional A2B receptor activity, HEK293, cAMP, IC50. In short, it runs like this: (§3)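 Intracellular cAMP, the adenosine receptor second messenger, is measured by HTRF following 30 min co-incubation with forskolin, agonist and test compound. Normalization uses DMSO as the neutral control and an inhibitor as the reference control. Fitted curves yield the values.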

Assay [4] has as its target T2, human A2A receptor. The experiment in a line: Functional A2A receptor activity, recombinant HEK293 cells, cAMP (HTRF), agonist NECA. Details: expressed in transfected cells; host or cells: HEK293. Particulars: read-out: Functional A2A receptor activity, HEK293, cAMP, IC50. In short, it runs like this:
as §3

The test system of the next assay is human T cells. Kind of assay: hTcell data, IL-2 (human T cells, IL-2 readout; method not given). The note with it: compounds of the present invention.

T2 sequence (P29274 whole entry): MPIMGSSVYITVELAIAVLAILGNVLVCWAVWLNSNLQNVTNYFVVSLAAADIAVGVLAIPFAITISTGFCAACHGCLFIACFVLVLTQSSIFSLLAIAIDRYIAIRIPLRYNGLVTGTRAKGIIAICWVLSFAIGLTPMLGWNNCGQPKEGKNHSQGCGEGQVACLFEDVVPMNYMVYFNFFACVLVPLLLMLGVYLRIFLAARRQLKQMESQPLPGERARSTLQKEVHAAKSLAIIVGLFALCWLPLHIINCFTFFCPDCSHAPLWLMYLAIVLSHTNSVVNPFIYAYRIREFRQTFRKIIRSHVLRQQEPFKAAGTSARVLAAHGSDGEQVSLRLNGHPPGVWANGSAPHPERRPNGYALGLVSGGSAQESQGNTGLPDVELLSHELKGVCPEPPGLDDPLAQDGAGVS

The term IC50 denotes the concentration at which inhibition is half-maximal. Regarding `COc1nc(F)c(C2CCOCC2)c2sc(NC(=O)N3CC[C@]4(CCOC4)C3)nc12` [Compound 38, (5S)-N-[6-fluoro-4-methoxy-7-(oxan-4-yl)-[1,3]thiazolo[4,5-c]pyridin-2-yl]-2-oxa-7-azaspiro[4.4]nonane-7-carboxamide], the IC50 at human A3 receptor is over 1 µM; with mouse Pan T cells [1] (Mus musculus, T-cell), under 0.1 µM; in the assay on mouse Pan T cells [2] (Mus musculus, T-cell), under 0.01 µM; on human A2A receptor [3] it was under 0.01 µM; at human A1 receptor, over 1 µM; on human A2B receptor it was under 0.01 µM. The IC50 at human A2A receptor [4] is under 0.01 µM.
As for `COc1cccc(-c2cnc(OC)c3nc(NC(=O)N4CCC5(CCOCC5)C4)sc23)c1` [Compound 54, 8-Oxa-2-aza-spiro[4.5]decane-2-carboxylic acid [4-methoxy-7-(3-methoxy-phenyl)-thiazolo[4,5-c]pyridin-2-yl]-amide], the IC50 at human A3 receptor was over 1 µM; with mouse Pan T cells [1] (Mus musculus, T-cell), under 0.1 µM; in the assay on mouse Pan T cells [2] (Mus musculus, T-cell), under 0.01 µM; on human A2A receptor [3], under 0.01 µM; at human A1 receptor it was over 1 µM; on human A2B receptor it was under 0.01 µM. Further, the IC50 on human A2A receptor [4] is under 0.01 µM.
On to `COc1nc(F)c(C2CCOCC2)c2sc(NC(=O)c3ccc(C(=O)N(C)C)cc3)nc12` [Compound 20, N-[6-Fluoro-4-methoxy-7-(tetrahydro-pyran-4-yl)-thiazolo[4,5-c]pyridin-2-yl]-N′,N′-dimethyl-terephthalamide], for which the IC50 on human A3 receptor is over 1 µM; with human T cells (T-cell) it was under 0.01 µM; in the assay with mouse Pan T cells [1] (Mus musculus, T-cell) it was under 0.1 µM; in the assay on mouse Pan T cells [2] (Mus musculus, T-cell), under 0.1 µM; at human A2A receptor [3], under 0.01 µM; at human A1 receptor, over 1 µM. Further, the IC50 at human A2B receptor and on human A2A receptor [4] was under 0.01 µM throughout.
As to `COc1nc(F)c(N2CCOCC2)c2sc(NC(=O)N3CC[C@@]4(CCCOC4)C3)nc12` [Compound 11, (5S)-N-[6-fluoro-4-methoxy-7-(morpholin-4-yl)-[1,3]thiazolo[4,5-c]pyridin-2-yl]-7-oxa-2-azaspiro[4.5]decane-2-carboxamide], the IC50 is over 1 µM at human A3 receptor; under 0.01 µM in the assay with human T cells (T-cell); under 0.1 µM in the assay on mouse Pan T cells [1] (Mus musculus, T-cell); under 0.01 µM at human A2A receptor [3]; over 1 µM on human A1 receptor; under 0.01 µM at human A2B receptor. Besides, the IC50 on human A2A receptor [4] was under 0.01 µM.
As to `COc1ncc(-c2cccs2)c2sc(NC(=O)N3CCC4(CCOCC4)C3)nc12` [Compound 47, 8-Oxa-2-aza-spiro[4.5]decane-2-carboxylic acid (4-methoxy-7-thiophen-2-yl-thiazolo[4,5-c]pyridin-2-yl)-amide], the IC50 was over 1 µM on human A3 receptor; under 0.1 µM in the assay on mouse Pan T cells [1] (Mus musculus, T-cell); under 0.1 µM with mouse Pan T cells [2] (Mus musculus, T-cell); under 0.01 µM on human A2A receptor [3]; over 1 µM on human A1 receptor; under 0.01 µM at human A2B receptor. Also, the IC50 on human A2A receptor [4] is under 0.01 µM.
`COc1nc(F)c(N2CCOCC2)c2sc(NC(=O)c3ccc(-c4nnn[nH]4)cc3)nc12` [Compound 6, N-(6-Fluoro-4-methoxy-7-morpholin-4-yl-thiazolo[4,5-c]pyridin-2-yl)-4-(1H-tetrazol-5-yl)-benzamide]: the IC50 at human A3 receptor was under 1 µM; in the assay on human T cells (T-cell), under 0.01 µM; in the assay on mouse Pan T cells [2] (Mus musculus, T-cell), under 0.1 µM; at human A2A receptor [3], under 0.1 µM; at human A1 receptor it was over 1 µM; on human A2B receptor it was under 0.01 µM. The concentration for half-maximal inhibition (IC50) at human A2A receptor [4] is under 0.01 µM.
Regarding `COc1ncc(C2=CCOCC2)c2sc(NC(=O)c3ccc(C(=O)N(C)C)cc3)nc12` [Compound 61, N4-[7-(3,6-dihydro-2H-pyran-4-yl)-4-methoxy-[1,3]thiazolo[4,5-c]pyridin-2-yl]-N1,N1-dimethylbenzene-1,4-dicarboxamide], the IC50 on human A3 receptor was over 1 µM; in the assay with mouse Pan T cells [1] (Mus musculus, T-cell), under 0.1 µM; at human A2A receptor [3], under 0.01 µM; on human A1 receptor, under 1 µM; on human A2B receptor, under 0.01 µM; at human A2A receptor [4], under 0.01 µM.
Regarding `COc1ncc(C2=CCOCC2)c2sc(NC(=O)N3CCC4(CCCOC4)C3)nc12` (centres unmarked) [Compound 15, 7-Oxa-2-aza-spiro[4.5]decane-2-carboxylic acid [7-(3,6-dihydro-2H-pyran-4-yl)-4-methoxy-thiazolo[4,5-c]pyridin-2-yl]-amide], the IC50 at human A3 receptor was over 1 µM; with human T cells, under 0.01 µM; with mouse Pan T cells [1] (mouse Pan T cells, CD3/CD28 activated, NECA 1 μM, IL-2 rescue), under 0.1 µM; at human A1 receptor, over 1 µM; on human A2B receptor it was under 0.01 µM; at human A2A receptor [4], under 0.01 µM.
On to `COc1ncc(-c2ccco2)c2sc(NC(=O)N3CCC4(CCOCC4)C3)nc12` [Compound 48, 8-Oxa-2-aza-spiro[4.5]decane-2-carboxylic acid (7-furan-2-yl-4-methoxy-thiazolo[4,5-c]pyridin-2-yl)-amide], for which the IC50 on human A3 receptor was over 1 µM; with mouse Pan T cells [2] (Mus musculus, T-cell) it was under 0.1 µM; at human A2A receptor [3] it was under 0.1 µM; at human A1 receptor it was over 1 µM; on human A2B receptor, under 0.01 µM; at human A2A receptor [4], under 0.01 µM.
For `COc1ncc(C2=CCOCC2)c2sc(NC(=O)N3CC[C@]4(CCCOC4)C3)nc12` [Compound 24, (R)-7-Oxa-2-aza-spiro[4.5]decane-2-carboxylic acid [7-(3,6-dihydro-2H-pyran-4-yl)-4-methoxy-thiazolo[4,5-c]pyridin-2-yl]-amide], the IC50 at human A3 receptor was over 1 µM; in the assay with human T cells it was under 0.01 µM; in the assay on mouse Pan T cells [2] (mouse Pan T cells, agonist NECA 1 uM) it was under 0.1 µM; on human A2A receptor [3] it was under 0.01 µM; on human A1 receptor, under 1 µM; at human A2B receptor, under 0.1 µM. For the same compound, at human A2A receptor [4], the IC50 is under 0.01 µM.
